ChEMBL document CHEMBL4138175, “Newly designed organotin(IV) carboxylates with peptide linkage: Synthesis, structural elucidation, physicochemical characterizations and pharmacological investigations” (Eur J Med Chem, 2018)
Activity calls are given as the source filed them. No cut-off for these calls is given here.

Columns and labels:
[1] = test system: NCI-H157; assay: Cytotoxicity against human NCI-H157 cells at 0.1 uM after 48 hrs by sulforhodamine B assay; format: functional
[2] = test system: Staphylococcus aureus; assay: Antibacterial activity against Staphylococcus aureus assessed as zone of inhibition after 24 to 48 hrs by well diffusion method; format: functional
[3] = test system: Pseudomonas aeruginosa; assay: Antibacterial activity against Pseudomonas aeruginosa assessed as zone of inhibition by measuring activity index after 24 to 48 hrs by well diffusion method relative to ampicillin; format: functional, organism-based
[4] = test system: Escherichia coli; assay: Antibacterial activity against Escherichia coli assessed as zone of inhibition by measuring activity index after 24 to 48 hrs by well diffusion method relative to amoxicillin; format: functional, organism-based
[5] = test system: Streptococcus pyogenes; assay: Antibacterial activity against Streptococcus pyogenes assessed as zone of inhibition by measuring activity index after 24 to 48 hrs by well diffusion method relative to ampicillin; format: functional, organism-based
[6] = test system: NCI-H157; assay: Cytotoxicity against human NCI-H157 cells after 48 hrs by sulforhodamine B assay; format: functional, cell-based
[7] = test system: Staphylococcus epidermidis; assay: Antibacterial activity against Staphylococcus epidermidis assessed as zone of inhibition by measuring activity index after 24 to 48 hrs by well diffusion method relative to amoxicillin; format: functional, organism-based
[8] = test system: NCI-H157; assay: Cytotoxicity against human NCI-H157 cells at 1 uM after 48 hrs by sulforhodamine B assay; format: functional
[9] = test system: NCI-H157; assay: Cytotoxicity against human NCI-H157 cells at 10 uM after 48 hrs by sulforhodamine B assay; format: functional
[10] = test system: Escherichia coli; assay: Antibacterial activity against Escherichia coli assessed as zone of inhibition by measuring activity index after 24 to 48 hrs by well diffusion method relative to ampicillin; format: functional, organism-based
[11] = test system: Streptococcus pyogenes; assay: Antibacterial activity against Streptococcus pyogenes assessed as zone of inhibition by measuring activity index after 24 to 48 hrs by well diffusion method relative to penicillin G; format: functional, organism-based
[12] = test system: Leishmania major; assay: Antileishmanial activity against Leishmania major promastigotes at 0.1 uM after 72 hrs by MTT assay relative to control; format: functional
[13] = test system: Leishmania major; assay: Antileishmanial activity against Leishmania major promastigotes at 100 uM after 72 hrs by MTT assay relative to control; format: functional
[14] = test system: Leishmania major; assay: Antileishmanial activity against Leishmania major promastigotes at 1 uM after 72 hrs by MTT assay relative to control; format: functional
[15] = test system: Klebsiella pneumoniae; assay: Antibacterial activity against Klebsiella pneumoniae assessed as zone of inhibition after 24 to 48 hrs by well diffusion method; format: functional
[16] = test system: Escherichia coli; assay: Antibacterial activity against Escherichia coli assessed as zone of inhibition by measuring activity index after 24 to 48 hrs by well diffusion method relative to tetracycline; format: functional
[17] = test system: Klebsiella pneumoniae; assay: Antibacterial activity against Klebsiella pneumoniae assessed as zone of inhibition by measuring activity index after 24 to 48 hrs by well diffusion method relative to tetracycline; format: functional, organism-based
[18] = test system: Staphylococcus epidermidis; assay: Antibacterial activity against Staphylococcus epidermidis assessed as zone of inhibition by measuring activity index after 24 to 48 hrs by well diffusion method relative to tetracycline; format: functional, organism-based
[19] = test system: NCI-H157; assay: Cytotoxicity against human NCI-H157 cells at 100 uM after 48 hrs by sulforhodamine B assay; format: functional
[20] = test system: Escherichia coli; assay: Antibacterial activity against Escherichia coli assessed as zone of inhibition by measuring activity index after 24 to 48 hrs by well diffusion method relative to penicillin G; format: functional, organism-based
[21] = test system: Escherichia coli; assay: Antibacterial activity against Escherichia coli assessed as zone of inhibition after 24 to 48 hrs by well diffusion method; format: functional
[22] = test system: Leishmania major; assay: Antileishmanial activity against Leishmania major promastigotes at 10 uM after 72 hrs by MTT assay relative to control; format: functional
[23] = test system: Serratia marcescens; assay: Antibacterial activity against Serratia marcescens assessed as zone of inhibition after 24 to 48 hrs by well diffusion method; format: functional
[24] = test system: Streptococcus pyogenes; assay: Antibacterial activity against Streptococcus pyogenes assessed as zone of inhibition after 24 to 48 hrs by well diffusion method; format: functional
[25] = test system: Pseudomonas aeruginosa; assay: Antibacterial activity against Pseudomonas aeruginosa assessed as zone of inhibition after 24 to 48 hrs by well diffusion method; format: functional
[26] = test system: Streptococcus pyogenes; assay: Antibacterial activity against Streptococcus pyogenes assessed as zone of inhibition by measuring activity index after 24 to 48 hrs by well diffusion method relative to amoxicillin; format: functional, organism-based
[27] = test system: Staphylococcus epidermidis; assay: Antibacterial activity against Staphylococcus epidermidis assessed as zone of inhibition after 24 to 48 hrs by well diffusion method; format: functional
[28] = test system: Serratia marcescens; assay: Antibacterial activity against Serratia marcescens assessed as zone of inhibition by measuring activity index after 24 to 48 hrs by well diffusion method relative to tetracycline; format: functional, organism-based
[29] = test system: Klebsiella pneumoniae; assay: Antibacterial activity against Klebsiella pneumoniae assessed as zone of inhibition by measuring activity index after 24 to 48 hrs by well diffusion method relative to amoxicillin; format: functional, organism-based
[30] = test system: Klebsiella pneumoniae; assay: Antibacterial activity against Klebsiella pneumoniae assessed as zone of inhibition by measuring activity index after 24 to 48 hrs by well diffusion method relative to ampicillin; format: functional, organism-based
[31] = test system: Streptococcus pyogenes; assay: Antibacterial activity against Streptococcus pyogenes assessed as zone of inhibition by measuring activity index after 24 to 48 hrs by well diffusion method relative to tetracycline; format: functional, organism-based
[32] = test system: Staphylococcus epidermidis; assay: Antibacterial activity against Staphylococcus epidermidis assessed as zone of inhibition by measuring activity index after 24 to 48 hrs by well diffusion method relative to penicillin G; format: functional, organism-based
[33] = test system: Staphylococcus epidermidis; assay: Antibacterial activity against Staphylococcus epidermidis assessed as zone of inhibition by measuring activity index after 24 to 48 hrs by well diffusion method relative to ampicillin; format: functional, organism-based
[34] = test system: Staphylococcus aureus; assay: Antibacterial activity against Staphylococcus aureus assessed as zone of inhibition by measuring activity index after 24 to 48 hrs by well diffusion method relative to ampicillin; format: functional, organism-based
[35] = test system: Staphylococcus aureus; assay: Antibacterial activity against Staphylococcus aureus assessed as zone of inhibition by measuring activity index after 24 to 48 hrs by well diffusion method relative to tetracycline; format: functional, organism-based
[36] = test system: Pseudomonas aeruginosa; assay: Antibacterial activity against Pseudomonas aeruginosa assessed as zone of inhibition by measuring activity index after 24 to 48 hrs by well diffusion method relative to penicillin G; format: functional, organism-based
[37] = test system: Pseudomonas aeruginosa; assay: Antibacterial activity against Pseudomonas aeruginosa assessed as zone of inhibition by measuring activity index after 24 to 48 hrs by well diffusion method relative to amoxicillin; format: functional, organism-based
[38] = test system: Staphylococcus aureus; assay: Antibacterial activity against Staphylococcus aureus assessed as zone of inhibition by measuring activity index after 24 to 48 hrs by well diffusion method relative to amoxicillin; format: functional, organism-based
[39] = test system: Staphylococcus aureus; assay: Antibacterial activity against Staphylococcus aureus assessed as zone of inhibition by measuring activity index after 24 to 48 hrs by well diffusion method relative to penicillin G; format: functional, organism-based
[40] = test system: Klebsiella pneumoniae; assay: Antibacterial activity against Klebsiella pneumoniae assessed as zone of inhibition by measuring activity index after 24 to 48 hrs by well diffusion method relative to penicillin G; format: functional, organism-based
[41] = test system: Pseudomonas aeruginosa; assay: Antibacterial activity against Pseudomonas aeruginosa assessed as zone of inhibition by measuring activity index after 24 to 48 hrs by well diffusion method relative to tetracycline; format: functional, organism-based

Row | Substance | Activity [1] [%] | inhibition zone (IZ) [2] | Activity_index [4] | Activity [6] | Activity [8] [%] | Activity [9] [%] | Activity_index [10] | Activity [12] [%] | Activity [13] [%] | Activity [14] [%] | inhibition zone (IZ) [15] | Activity [19] [%] | Activity_index [20] | inhibition zone (IZ) [21] | Activity [22] [%] | inhibition zone (IZ) [23] | inhibition zone (IZ) [24] | inhibition zone (IZ) [25] | inhibition zone (IZ) [27] | Activity_index [28] | also measured
1 | Dimethylstannanediyl bis 2-(4-methoxy-2-nitrophenylcarbamoyl)benzoate | 48.9 | 13.7 mm | inactive | Dose-dependent effect | 51.2 | 53.4 | inactive | 48.4 | 62.3 | 51.6 | 25.2 mm | 55.6 | inactive | 1.77 mm | 54.7 | inactive | inactive | inactive | 13.3 mm | inactive | Activity_index [3]: inactive; Activity_index [5]: inactive; Activity index [7]: 6.65; Activity_index [11]: inactive; Activity index [16]: 0.88; Activity index [17]: 1.8; Activity index [18]: 1.33; Activity_index [26]: inactive; Activity index [29]: 4.2; Activity index [30]: 4.2; Activity_index [31]: inactive
2 | Diphenylstannanediyl bis 2-(4-methoxy-2-nitrophenylcarbamoyl)benzoate | 55.5 | inactive | inactive | Dose-dependent effect | 59.6 | 67.1 | inactive | 56.6 | 71.2 | 60.4 | inactive | 73.9 | inactive | inactive | 65.5 | inactive | 7.33 mm | 10 mm | inactive | inactive | Activity_index [32]: inactive; Activity_index [33]: inactive; Activity_index [34]: inactive; Activity_index [35]: inactive; Activity index [36]: 1.67; Activity index [37]: 1.67; Activity_index [38]: inactive; Activity_index [39]: inactive; Activity_index [40]: inactive; Activity index [41]: 1.67
